Source: patent publication US20220313622A1, “PHYTOCANNABINOIDS FOR PREVENTING OR TREATING NON-ALCOHOLIC FATTY LIVER DISEASE, DYSLIPIDEMIA, AND TYPE 2 DIABETES” (YISSUM RESEARCH DEVELOPMENT COMPANY OF THE HEBREW …, priority 2019, published 2022)

Assays:
[1] = test system: human hepatoma HepG2 cells; assay: Oleate:Palmitate-induced lipid accumulation in hepatocytes (Nile-Red); assay type: cell-based; details: CBD 20 μM; 0.3 mM oleate:palmitate 2:1; 24 hr; FIG. 1
Experimental: To test whether CBG and/or CBD have the ability to reduce lipid accumulation in hepatocytes, we have utilized an in vitro model of fat accumulation in hepatocytes. Briefly, human hepatoma HepG2 cells were maintained at 37° C. in 5% CO2 in DMEM medium supplemented with 10% FCS, 2 mM 1-glutamine, 1 mM sodium pyruvate, 100 U/mL penicillin and […] streptomycin. Free fatty acids (2:1, molar ratio, oleic and palmitic acids) were mixed with bovine serum albumin (BSA). Cells were incubated with fatty acid-BSA complex in FCS-free culture medium at 0.3 mM final concentration of fatty acid and 1% of BSA. Control cell cultures were incubated with medium containing the vehicle. Compounds were tested in a range of concentrations (as detailed in each figure) in the presence/absence of fatty acids. The synergistic effect between two compounds was also tested once validating their individual effect. After 24 hr of incubation with the compounds, the cells were washed, incubated with 1 μg/mL mixture of Nile-Red/Hoechst solution for 15 mins at 37° C. protected from light. Fluorescence was measured by the Cytation-3 plate reader at ex:488 nm/em:550 for Nile-Red and Hoechst, respectively. Results were normalized to total protein levels of each well, and presented as a change in the accumulation of lipids in comparison with Vehicle-treated group.

[2] = test system: high-fat diet-induced obese mice; assay: Hepatic steatosis in high-fat diet-induced obese mice; assay type: in vivo, mouse; details: 28 days ip, CBG 25 mg/kg/day; for HFD-induced hepatic steatosis (liver triglyceride levels, fat vacuoles and ballooning in hepatocytes): CBD 10 mg/kg/day, alone or combined, FIGS. 5A, B
Experimental: (§1) Next, the inventors tested whether the isolated and combined effect of phytocannabinoids has the ability to reverse fatty liver (hepatic steatosis) and improve metabolism in high-fat diet-induced obese mouse. Briefly, six weeks old, male C57Bl/6J mice were fed ad libitum with a high-fat diet (HFD; D12492; 60% of calories from fat, 20% from protein, and 20% from carbohydrates; Research Diets) or a mouse standard diet (STD; NIH no. 31 rodent diet) for 14 weeks. Then, the mice were treated for 28 days with CBD (10 mg/kg/day, ip), CBG (25 mg/kg/day, ip), CBD+CBG (10 mg/kg/day+25 mg/kg/day, ip respectively) or vehicle (EtOH:cremophor:saline; 1:1:18). The mouse groups were labeled as defined here: mice on a STD treated with vehicle (STD-Veh), mice on a HFD treated with vehicle (HFD-Veh), mice on a HFD treated with CBD (HFD-CBD), mice on a HFD treated with CBG (HFD-CBG), and mice on a HFD treated with CBD+CBG (HFD-CBD+CBG).
Hepatic steatosis (Fatty liver) was measured by (i) quantifying the amount of triglycerides and cholesterol in the liver by using a specific lipid extraction method followed by colorimetric chemical analyses using the Cobas C111 Chemistry Analyzer (Roche, Germany), and (ii) evaluating the reversal of fatty liver by histology. Briefly, paraffin-embedded liver sections (5 tiM) were be used to evaluate hepatic morphology (using H & E staining).

[3] = test system: high-fat diet-induced obese mice; assay: Glucose and insulin homeostasis in high-fat diet-induced obese mice; assay type: in vivo, mouse; details: 28 days ip, CBG 25 mg/kg/day; for HFD-induced hyperglycemia (fasting blood glucose levels) / glucose tolerance (intraperitoneal glucose tolerance test) / serum insulin levels (hyperinsulinemia): CBD 10 mg/kg/day; for HFD-induced hyperglycemia (fasting blood glucose levels) / glucose tolerance (intraperitoneal glucose tolerance test): alone or combined; for HFD-induced hyperglycemia (fasting blood glucose levels): FIG. 6A; for glucose tolerance (intraperitoneal glucose tolerance test): FIG. 6B, C; for serum insulin levels (hyperinsulinemia): FIG. 7A
Experimental: as §1
Glucose and insulin homeostasis was assessed by (i) measuring fasting blood glucose (Elite glucometer, Bayer, Germany) and serum insulin (Ultra-Sensitive Mouse Insulin ELISA kit, EMD Millipore, MA) levels, (ii) evaluating Homeostatic Model Assessment for Insulin Resistance (HOMA-IR), and (iii) performing intraperitoneal glucose tolerance test.

[4] = test system: high-fat diet-induced obese mice; assay: Lipid balance (circulating triglycerides and cholesterol) in high-fat diet-induced obese mice; assay type: in vivo, mouse; details: 28 days ip; for serum triglycerides: CBD 10 mg/kg/day, FIG. 8A
Experimental: as §1
Lipid balance was assessed by evaluating the levels of low-density lipoprotein (LDL)-cholesterol, total cholesterol and triglycerides by using Cobas C111 Chemistry Analyzer (Roche, Germany).

rats on high-fat diets = details: cited from earlier work
mice = details: cited from earlier work
[5] = test system: high-fat diet-induced obese mice; assay: Antiobesity effect (fat and lean mass, EchoMRI) in high-fat diet-induced obese mice; assay type: in vivo, mouse; details: 28 days ip; CBG 25 mg/kg/day; FIG. 9B, C
Experimental: as §1
Antiobesity effect was assessed by measuring body weight. Total fat and lean masses were determined at the end of the treatment by EchoMRI-100 (Echo Medical Systems LLC, Houston Tex.).

obese mice = details: cited from earlier work

SMILES	lipid accumulation in hepatocytes [1]	HFD-induced hepatic steatosis (liver triglyceride levels, fat vacuoles and ballooning in hepatocytes) [2]	HFD-induced hyperglycemia (fasting blood glucose levels) [3]	glucose tolerance (intraperitoneal glucose tolerance test) [3]	serum insulin levels (hyperinsulinemia) [3]	serum triglycerides ([4]; CBG 25 mg/kg/day)	weight gain (rats on high-fat diets)	development of alcohol-induced hepatosteatosis (mice)	liver cholesterol levels ([2]; FIG. 5C)	HOMA-IR ([3]; FIG. 7B)	total circulating cholesterol levels ([4]; CBG 25 mg/kg/day alone or with CBD 10 mg/kg/day, FIG. 8B)	LDL-Cholesterol levels ([4]; CBG 25 mg/kg/day, FIG. 8C)	fat mass [5]	lean mass [5]	insulin sensitivity (obese mice)	triglyceride (TG) accumulation within the livers (obese mice)
C=C(C)[C@@H]1CCC(C)=C[C@H]1c1c(O)cc(CCCCC)cc1O [CBD, cannabidiol, reference compound]	significantly reduce lipid accumulation	significantly attenuated	significantly normalized	significant improvement	ineffective in reducing hyperinsulinemia	Reduction	inhibits weight gain	inhibits								
CCCCCc1cc(O)c(C/C=C(\C)CCC=C(C)C)c(O)c1 [CBG, cannabigerol]		significantly attenuated	significantly normalized	significant improvement	trend toward reduction	Reduction			trend toward reduction	normalization	significantly reduced	significant reduction	significant reduction	increased		
CCCc1cc(O)c2c(c1)OC(C)(C)[C@@H]1CCC(C)=C[C@@H]21 [THCV, Δ^9-tetrahydrocannabivarin]															improves insulin sensitivity	decreases
